Assay results reported in patent publication US20040126792A1, “Synthesis and applications of trinucleotide pCpCpA-3'-NH-aminoacyl derivatives” (priority 2002, published 2004).

Tests used:
[1] = tested on: S30 extract peptidyltransferase; assay: Peptidyltransferase gel-shift assay in the presence of antibiotics, S30 extract; assay type: biochemical, E. coli; conditions: 100 μM antibiotic, substrates CCA-Met-Biotin and 32P-CCA-NH-Phe, 37° C.
Experimental: (§1) Assay reactions were carried out with: 50S or 70S subunits from the bacterial ribosome (prepared from E. coli MRE600), or S30 extract (purchased from Promega); 50 μM CCA-Met-Biotin or tRNA-Met-Biotin; trace amounts of ^32P-CCA-NH-Phe (˜0.5 nM); 100 μM antibiotic in the presence of 50 mM Tris•HCl (pH 7.5); 35 mM MgCl2; 100 mM NH4Cl; and 1000 mM KCl, at 37° C. For each reaction, the same amount of 50S or 70S (10 pmol) was included, but the S30 concentration was not determined.
(§2) Reactions were initiated by addition of ^32P-CCA-NH-Phe. A 1-μL aliquot of the reaction mixture was removed at specific time points, quenched with 2 μL quench buffer (formamide +0.05% xylene cyanol), and loaded on 24%/7.5 M urea polyacrylamide denaturing gel.
(§3) The substrates used in these reactions were CCA-Met-Biotin and ^32P-CCA-NH-Phe. The lower band corresponds to the labeled ^32P-CCA-NH-Phe and the top band is the dipeptide product (^32P-CCA-NH-Phe-Met-Biotin).

[2] = tested on: 70S ribosome peptidyltransferase; assay: Peptidyltransferase activity assay in the presence of antibiotics, 70S ribosome; conditions: 100 μM antibiotic; 70S versus 50S
Experimental: as §1, §2, §3
(§4) Reaction conditions for these studies were the same as described above.

[3] = tested on: 50S ribosome peptidyltransferase; assay: Peptidyltransferase activity assay in the presence of antibiotics, 50S ribosome; conditions: 100 μM antibiotic, tRNA-Met-Biotin versus CCA-Met-Biotin substrate
Experimental: as §1
Reactions were initiated by addition of ^32P-CCA-NH-Phe. A 1-μL aliquot of the reaction mixture was removed at specific time points, quenched with 2 μL quench buffer (formamide +0.05% xylene cyanol), and loaded on 24%/7.5 M urea polyacrylamide denaturing gel. Reaction products were quantitated with a Molecular Dynamics PhosphorImager™, and the fraction of individual product relative to total reactants was plotted against time (see FIGS. 11-14).
as §4

SMILES	Inhibition of peptidyltransferase activity (gel-shift, FIG. 10A) [1]	Inhibition of 70S reactions compared with 50S reactions [2]	Effect on activity of 50S-tRNA compared with 50S-CCA [3]
O=C(N[C@H](CO)[C@H](O)c1ccc([N+](=O)[O-])cc1)C(Cl)Cl [chloramphenicol]	greatly inhibited		
CC[C@H]1OC(=O)[C@H](C)[C@@H](O[C@H]2C[C@@](C)(OC)[C@@H](O)[C@H](C)O2)[C@H](C)[C@@H](O[C@@H]2O[C@H](C)C[C@H](N(C)C)[C@H]2O)[C@](C)(O)C[C@@H](C)C(=O)[C@H](C)[C@@H](O)[C@]1(C)O [erythromycin]	greatly inhibited	much more strongly than 50S reactions	
COc1ccc(C[C@H](N)C(=O)N[C@H]2[C@@H](O)[C@H](n3cnc4c(N(C)C)ncnc43)O[C@@H]2CO)cc1 [puromycin]	does not significantly inhibit	much more strongly than 50S reactions	
CSC[S@+]([O-])C[C@H](CO)NC(=O)/C=C/c1c(C)[nH]c(=O)[nH]c1=O [sparsomycin]	greatly inhibited		much less unaffected than that of 50S-CCA
[H]/N=C(/N)N[C@H]1[C@H](O)[C@@H](O)[C@H](O[C@@H]2O[C@@H](C)[C@](O)(C=O)[C@H]2O[C@@H]2O[C@@H](CO)[C@H](O)[C@@H](O)[C@@H]2NC)[C@@H](N/C(N)=N\[H])[C@@H]1O [streptomycin]	not inhibited		
